This is an account of results in patent US8901139B2, “Tricyclic indole derivatives and methods of use thereof” (Merck Sharp & Dohme Corp., priority 2008, dated 2014).

This experiment relates to HCV replicon cells (replicon RNA level). Kind of experiment: Cell-Based HCV Replicon Assay. The settings on record: Hepatitis C virus, 72 h; replicon RNA by real time PCR (Taqman), day 3; ΔCT=3.2 over baseline. How it is done:
To measure cell-based anti-HCV activity of the a Compound of Formula (I), replicon cells were seeded at 5000 cells/well in 96-well collagen I-coated Nune plates in the presence of the Compound of Formula (I). Various concentrations of a Compound of Formula (I), typically in 10 serial 2-fold dilutions, were added to the assay mixture, with the starting concentration ranging from 250 μM to 1 μM. The final concentration of DMSO was 0.5%, fetal bovine serum was 5%, in the assay media. Cells were harvested on day 3 by the addition of 1× cell lysis buffer (Ambion cat #8721). The replicon RNA level was measured using real time PCR (Taqman assay). The amplicon was located in 5B. The PCR primers were: 5B.2F, ATGGACAGGCGCCCTGA (SEQ. ID. NO. 2); 5B.2R, […] (SEQ. ID. NO. 3);the probe sequence was FAM-labeled CACGCCATGCGCTGCGG (SEQ. ID. NO. 4). GAPDH RNA was used as endogenous control and was amplified in the same reaction as NS5B (multiplex PCR) using primers and VIC-labeled probe recommended by the manufacturer (PE Applied Biosystem). The real-time RT-PCR reactions were run on ABI PRISM 7900HT Sequence Detection System using the following program: 48° C. for 30 minutes, 95° C. for 10 minutes, 40 cycles of 95° C. for 15 sec, 60° C. for 1 minute. The ΔCT values (CT5B-CTGAPDH) were plotted against the concentration of test compound and fitted to the sigmoid dose-response model using XLfit4 (MDL). EC50 was defined as the concentration of inhibitor necessary to achieve ΔCT=1 over the projected baseline; EC90 the concentration necessary to achieve ΔCT=3.2 over the baseline. Alternatively, to quantitate the absolute amount of replicon RNA, a standard curve was established by including serially diluted T7 transcripts of replicon RNA in the Taqman assay. All Taqman reagents were from PE Applied Biosystems. Such an assay procedure was described in detail in e.g. Malcolm et al., Antimicrobial Agents and Chemotherapy 50: 1013-1020 (2006).
HCV replicon assay data was calculated for selected compounds of the present invention using this method.
In general terms: Replicon systems follow genome replication, usually without infectious particles.
Take `N#Cc1ccc(F)c(Cn2c(C(=O)O)c(-c3ccc[nH]c3=O)c3c4occc4c(F)cc32)c1` [Compound 129]: the EC90 (commonly the point of the concentration-response curve where the effect stands at 90%) is less than 100 nM.
The compound `O=Cc1ccc(F)c(Cn2c(C(=O)O)c(-c3ccc[nH]c3=O)c3c4occc4c(F)cc32)c1` [Compound 131] had a 90% effect concentration (EC90) of less than 100 nM.
In turn, `Cc1cc2[nH]ncc2cc1Cn1c(C(=O)O)c(-c2ccc[nH]c2=O)c2c3occc3c(F)cc21` [Compound 136] gave an EC90 of less than 100 nM.
`O=C(O)c1c(-c2ccc[nH]c2=O)c2c3occc3c(F)cc2n1Cc1cc2cn[nH]c2cc1Cl` [Compound 150] gave an EC90 of less than 100 nM.
`O=C(O)c1c(-c2ccc[nH]c2=O)c2c3c(c(F)cc2n1Cc1cc2cn[nH]c2cc1Cl)CCO3` [Compound 157] displayed a 90% effect concentration (EC90) of less than 100 nM.
With `Nc1ncnc2cc(F)c(Cn3c(C(=O)O)c(-c4ccc[nH]c4=O)c4c5occc5c(F)cc43)cc12` [Compound 161], the EC90 is less than 100 nM.
Next, `Cn1cnc2cc(Cl)c(Cn3c(C(=O)O)c(-c4ccc[nH]c4=O)c4c5occc5c(F)cc43)cc21` [Compound 162]: less than 100 nM.
Next, `O=C(O)c1c(-c2ccc[nH]c2=O)c2c3occc3c(F)cc2n1Cc1cc2c(=O)[nH]cnc2cc1Cl` [Compound 164]: less than 100 nM; `O=C(O)c1c(-c2ccc[nH]c2=O)c2c3c(c(F)cc2n1Cc1cc2c(=O)[nH]c(=O)[nH]c2cc1F)CCO3` [Compound 165]: less than 100 nM; `O=C(O)c1c(-c2ccc[nH]c2=O)c2c3occc3c(F)cc2n1Cc1cc2cc[nH]c2cc1Br` [Compound 170]: less than 100 nM.
As for `Cc1cc2[nH]ncc2cc1Cn1c(C(=O)OCCN(C)C)c(-c2ccc[nH]c2=O)c2c3occc3c(F)cc21` [Compound 172], the figure is less than 100 nM; as for `CN(C)CCOC(=O)c1c(-c2ccc[nH]c2=O)c2c3c(c(F)cc2n1Cc1cc2cn[nH]c2cc1F)CCO3` [Compound 174], less than 100 nM; as for `CN(C)CCOC(=O)c1c(-c2ccc[nH]c2=O)c2c3occc3c(F)cc2n1Cc1cc(N)nc2ccccc12` [Compound 177], less than 100 nM.
In turn, `CN(C)CCOC(=O)c1c(-c2ccc[nH]c2=O)c2c3occc3c(F)cc2n1Cc1cc2c(N)ncnc2cc1F` [Compound 185] registered a concentration for an effect of 90% (EC90) of less than 100 nM.
Consider `C=CCNCCOC(=O)c1c(-c2ccc[nH]c2=O)c2c3occc3c(F)cc2n1Cc1cc2cn[nH]c2cc1CC=C` [Compound 188], for which the EC90 is less than 100 nM.
Take `CN(C)CCCOC(=O)c1c(-c2ccc[nH]c2=O)c2c3occc3c(F)cc2n1Cc1cc2c(=O)[nH]cnc2cc1F` [Compound 189]: the concentration for an effect of 90% (EC90) is less than 100 nM.
